Experimental data reported in patent US20100004238A1, “FUSED HETEROCYCLIC COMPOUND” (TAKEDA PHARMACEUTICAL COMPANY LIMITED, priority 2006, published 2010).
pIC50: −log10 of the molar value.

Columns and labels:
[1] = target: T1, EGFR intracellular domain (EGFR kinase) (Homo sapiens, UniProt P00533); experiment: Determination of EGFR kinase inhibitory activity; format: biochemical; details: compound at 1.0 μM, poly-Glu:Tyr (4:1) substrate, [γ-32P]ATP, read-out: inhibitory rate (%) at 1.0 μM
T1 construct: made in house; host or cells: SF-21 insect cells infected with recombinant baculovirus BAC-EGFR
T1 sequence (P00533 669-1210): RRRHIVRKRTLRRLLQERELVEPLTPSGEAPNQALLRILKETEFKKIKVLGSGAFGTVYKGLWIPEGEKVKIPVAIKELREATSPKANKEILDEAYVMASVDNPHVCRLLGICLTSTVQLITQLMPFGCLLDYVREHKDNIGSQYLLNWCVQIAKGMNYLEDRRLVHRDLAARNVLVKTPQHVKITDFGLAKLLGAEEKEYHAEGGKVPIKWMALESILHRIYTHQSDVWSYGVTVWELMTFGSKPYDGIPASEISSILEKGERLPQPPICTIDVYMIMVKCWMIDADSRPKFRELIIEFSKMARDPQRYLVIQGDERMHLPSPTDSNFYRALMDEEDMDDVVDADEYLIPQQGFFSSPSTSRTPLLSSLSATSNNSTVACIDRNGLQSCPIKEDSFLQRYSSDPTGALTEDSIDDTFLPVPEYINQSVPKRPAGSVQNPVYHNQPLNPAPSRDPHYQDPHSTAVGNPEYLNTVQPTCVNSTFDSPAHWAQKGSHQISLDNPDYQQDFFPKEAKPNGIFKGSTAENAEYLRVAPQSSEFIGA
Procedure: Human EGFR gene was cloned by RT-PCR using total RNA prepared from A431 cells as a template. The primer used for RT-PCR was prepared in consideration of the information of nucleotide sequence (Genbank Accession No. X00588) of EGFR gene by adding a nucleotide sequence encoding DYKDDDD peptide and a restriction enzyme recognition sequence to a nucleotide sequence (corresponding to 2191-3819 of Genbank Accession No. X00588 as a base, 669-1210 amino acids of Genbank Accession No. NP_005219 as a protein) encoding the EGFR intracellular domain region such that the protein contains an N-terminal DYKDDDD peptide tag. The primer nucleotide sequence is shown below.
(§1) SF-21 cells were sown at 1×10^6 cells/mL in Sf-900II SFM medium (1 L, Invitrogen) containing 10% fetal bovine serum (trace), 50 mg/L gentamicin (Invitrogen) and 0.1% Pluronic F-68 (Invitrogen), and shaking culture was performed using a 2 L volume Erlenmeyer flask at 27° C., 100 rpm. After culturing for 24 hrs, recombinant baculovirus BAC-EGFR (13.4 mL) was added, and the mixture was further cultured for 3 days. The culture medium was centrifuged at 2,000 rpm for 5 min to give virus-infected cells. The infected cells were washed with a phosphate buffered saline (Invitrogen), centrifuged under the same conditions, and the cells were preserved at −80° C. The cryopreserved cells were thawed in ice, suspended in buffer A (50 mM Tris buffer (30 mL, pH 7.4) containing 20% glycerol, 0.15 M NaCl) supplemented with Complete Protease Inhibitor (Boehringer), and ruptured 3 times with a Polytron homogenizer (Kinematica) at 20,000 rpm for 30 sec. The ruptured solution was clarified by centrifugation at 40,000 rpm for 30 min, and filtered with a 0.45 μm filter. The filtrate was passed through a column packed with Anti-FLAG M2 Affinity Gel (4 mL, Sigma-Aldrich) at a flow rate of about 0.5 mL/min. The column was washed with buffer A, and eluted with buffer A containing 100 μg/mL of FLAG peptide. The eluent was concentrated with Vivaspin 20 (Vivascience) having a molecular weight cut off of 30K. The concentrate was purified by gel filtration using Hi Load 16/60 Superdex 200 pg (GE Healthcare Bioscience) equilibrated with buffer A. The fractions containing EGFR intracellular domain were collected and cryopreserved at −80° C.
(§2) EGFR kinase reaction was performed using a 96 well plate. As a buffer for kinase reaction, a buffer having a composition of 50 mM Tris-HCl (pH 7.5), 5 mM MnCl2, 2 mM dithiothreitol, 0.01% Tween-20 was used. The compound of the present invention was dissolved in dimethyl sulfoxide (DMSO), and diluted with the kinase reaction buffer so that DMSO concentration would be 0.1% during kinase reaction. This compound solution (10 μL) was mixed with a kinase reaction buffer (20 μL) containing EGFR intracellular domain (0.625 μg/mL) obtained in Experimental Example 2B and polypeptide substrate poly-Glu:Tyr (4:1) (Sigma Ltd., 12.5 μg/mL), and the mixture was stood at room temperature for 5 min. Then, a kinase reaction buffer (20 μL) containing 125 μM ATP and 45 μCi/mL [γ-^32P]ATP was added, and the kinase reaction was initiated with 50 μL of the final reaction mixture. A kinase reaction was performed at room temperature for 10 min, and the kinase reaction was quenched by addition of 20% TCA solution (50 μL). The mixture after completion of the reaction was stood at room temperature for 30 min, and acid insoluble fractions in the mixture after completion of the reaction were collected in a 96 well GF/C filter plate (PerkinElmer) using a cell harvester (PerkinElmer). Thereafter, the filter containing the acid insoluble fractions was washed with 3% phosphoric acid solution. After washing, the filter plate was dried at 45° C. for 60 min, and 25 μL of MicroScinti 0 (PerkinElmer) was added. The radioactivity was measured using TopCount (PerkinElmer).
EGFR kinase inhibitory rate (%) of the test compound was calculated by the following formula: […]

[2] = tested on: human breast cancer cell BT-474; experiment: Inhibitory action on breast cancer cell BT-474 proliferation in vitro; format: cell-based; details: 120 h, BT-474 cells, cultured for 5 days with compound, SRB protein content
Procedure: A suspension of human breast cancer cell BT-474 (100 μl (6,000 cells)) were plated in a 96-well microplate and cultured in an incubator (37° C., 5% carbon dioxide). On the following day, 100 μl of a solution of each test compound previously diluted serially in 2-fold, was added, and the cells were cultured for 5 days. After the culture medium containing the test compound was removed, the cells were washed and fixed with 50% trichloroacetic acid, after which a 0.4% (w/v) SRB dye solution (dissolved in 1% acetic acid) was added to stain as well as fix the cell protein (Skehan et al., Journal of the National Cancer Institute, Vol. 82, pp. 1107-1112, 1990). After washing with a 1% acetic acid solution, 100 μl of extract solution (10 mM, Tris buffer) was added to extract the dye and the absorbance was measured at a wavelength of 550 nm to quantify the amount of cells as protein content. Taking as 100% the protein content for the control group, which received no test compound solution, the ratio of the residual protein content for each treatment group was determined, and the compound concentration required to achieve 50% suppression of the residual cell content relative to the control (IC50 value) was calculated.

[3] = target: T2, HER2 intracellular domain (HER2 kinase) (Homo sapiens, UniProt P04626); experiment: Determination of HER2 kinase inhibitory activity; format: biochemical; details: compound at 1.0 μM, poly-Glu:Tyr (4:1) substrate, [γ-32P]ATP, read-out: inhibitory rate (%) at 1.0 μM
T2 construct: made in house; host or cells: SF-21 insect cells infected with recombinant baculovirus BAC-HER2
T2 sequence (P04626 676-1255): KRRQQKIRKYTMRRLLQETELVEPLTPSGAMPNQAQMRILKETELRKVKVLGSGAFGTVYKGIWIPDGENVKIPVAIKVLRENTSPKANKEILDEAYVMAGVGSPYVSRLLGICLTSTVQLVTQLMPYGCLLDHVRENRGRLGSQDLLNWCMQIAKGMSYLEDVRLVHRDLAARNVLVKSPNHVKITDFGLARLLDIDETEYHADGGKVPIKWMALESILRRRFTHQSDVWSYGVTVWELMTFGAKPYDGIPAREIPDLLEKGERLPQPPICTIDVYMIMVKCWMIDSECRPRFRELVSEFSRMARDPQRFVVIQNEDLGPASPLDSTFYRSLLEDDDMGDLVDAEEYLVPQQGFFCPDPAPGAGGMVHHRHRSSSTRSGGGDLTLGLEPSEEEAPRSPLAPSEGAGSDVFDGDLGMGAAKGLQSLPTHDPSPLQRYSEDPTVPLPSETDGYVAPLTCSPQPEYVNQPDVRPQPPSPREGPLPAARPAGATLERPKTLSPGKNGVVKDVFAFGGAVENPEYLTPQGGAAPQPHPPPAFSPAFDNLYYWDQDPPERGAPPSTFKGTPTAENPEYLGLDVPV
Procedure: Human HER2 gene was cloned by RT-PCR using total RNA prepared from MCF7 cells as a template. The primer used for RT-PCR was prepared in consideration of the information of nucleotide sequence (Genbank Accession No. M11730) of HER2 gene by adding a nucleotide sequence encoding DYKDDDD peptide and a restriction enzyme recognition sequence to a nucleotide sequence (corresponding to 2176-3918 of Genbank Accession No. M11730 as a base, 676-1255 amino acids of Genbank Accession No. NP_004439 as a protein) encoding the HER2 intracellular domain region such that the protein contains an N-terminal DYKDDDD peptide tag. The primer nucleotide sequence is shown below.
as §1, with “hr,” for “hrs,”, “BAC-HER2” for “BAC-EGFR”, “HER2” for “EGFR”
as §2, with “HER2 kinase reaction” for “EGFR kinase reaction”, “buffer […] containing HER2” for “buffer (20 μL) containing EGFR”, “mL) containing HER2 intracellular domain” for “μL) containing EGFR intracellular domain”, “Experimental Example 1B and polypeptide” for “Experimental Example 2B and polypeptide”, “TopCount (PerkinElmer). HER2 kinase inhibitory rate (%) of the test compound was calculated by the following formula: […]” for “TopCount (PerkinElmer).”

SMILES	inhibition at 1 µM [1] [%]	pIC50 [2]	inhibition at 1 µM [3] [%]
CS(=O)(=O)CC(=O)NCCn1ccc2ncnc(Nc3ccc(Oc4cccc5c4CC(=O)N5)c(Cl)c3)c21 [Example 6, N-{2-[4-({3-chloro-4-[(2-oxo-2,3-dihydro-1H-indol-4-yl)oxy]phenyl}amino)-5H-pyrrolo[3,2-d]pyrimidin-5-yl]ethyl}-2-(methylsulfonyl)acetamide]	100	> 7.00	–
OCCOCCn1ccc2ncnc(Nc3ccc(Oc4cccc5[nH]ccc45)c(Cl)c3)c21 [Example 16, 2-[2-(4-{[3-chloro-4-(1H-indol-4-yloxy)phenyl]amino}-5H-pyrrolo[3,2-d]pyrimidin-5-yl)ethoxy]ethanol]	99	–	100
CN1C(=O)Cc2c(Oc3ccc(Nc4ncnc5ccn(CCO)c45)cc3Cl)cccc21 [Example 8, 4-(2-chloro-4-{[5-(2-hydroxyethyl)-5H-pyrrolo[3,2-d]pyrimidin-4-yl]amino}phenoxy)-1-methyl-1,3-dihydro-2H-indol-2-one]	100	> 7.00	–
Cn1ccc2ncnc(Nc3ccc(Oc4cccc5[nH]ccc45)c(Cl)c3)c21 [Example 22, N-[3-chloro-4-(1H-indol-4-yloxy)phenyl]-5-methyl-5H-pyrrolo[3,2-d]pyrimidin-4-amine]	98	> 7.00	–
